Test results published in patent publication US4016158A, “Cephalosporin derivatives” (Roussel-UCLAF, priority 1971, dated 1977).
Values after ≈ are worked out from the molar mass of the structure shown. Like-named read-outs stand apart in the source and are kept apart here.

Columns and labels:
[1] = test system: Escherichia coli 4965; assay: MIC (Table II); assay type: cell-based; conditions: read-out: minimum inhibition concentration
Outline: (§1)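 Using a diffusion technique in pH 7 gelose, the lowest concentration preventing growth of each strain was reported in mcg/ml.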

[2] = test system: Staphylococcus aureus A8P; assay: MIC (Table II); assay type: cell-based; conditions: read-out: minimum inhibition concentration
Outline: as §1

[3] = test system: Escherichia coli 1718; assay: MIC (Table II); assay type: cell-based; conditions: read-out: minimum inhibition concentration
Outline: as §1

[4] = test system: Proteus mirabilis 6194; assay: MIC (Table II); assay type: cell-based; conditions: read-out: minimum inhibition concentration
Outline: as §1

[5] = test system: Proteus mirabilis 8029; assay: MIC (Table II); assay type: cell-based; conditions: read-out: minimum inhibition concentration
Outline: as §1

[6] = test system: Salmonella typhimurium 420; assay: MIC (Table II); assay type: cell-based; conditions: Salmonella enterica, read-out: minimum inhibition concentration
Outline: as §1

[7] = test system: Streptococcus hemolyticus 905; assay: MIC (Table II); assay type: cell-based; conditions: Streptococcus pyogenes, read-out: minimum inhibition concentration
Outline: as §1

[8] = test system: Staphylococcus aureus 397; assay: MIC (Table II); assay type: cell-based; conditions: read-out: minimum inhibition concentration
Outline: as §1

[9] = test system: Staphylococcus aureus; assay: in vivo antibacterial activity, experimental staphylococcia in mice, oral
Method: The in vivo antibacterial activity for product A was determined in mice with an experimental staphylococcia. 50 male mice weighing 20 to 23 g were divided into 5 groups of 10 mice each and all were infected interperitoneally with 0.5 ml of a 15 hour culture of Staphylococcus aureus in Pasteur nutritive broth diluted 1/3 with distilled water. Each mouse received product A orally 1 hour and 5 hours after the infection.

[10] = 0.5 mg repeated two times, oral
[11] = 0.5 mg repeated two times, oral, 10 mice
[12] = 1.0 mg repeated two times, oral
[13] = 2.0 mg repeated two times, oral
[14] = 3.0 mg repeated two times, oral

CC(C)C1=C(C(=O)O)N2C(=O)[C@@H](NC(=O)[C@H](N)c3ccccc3)[C@H]2SC1 [Example 9, L (+) cis 7-[D (-)-α-aminophenylacetamido]-3-isopropyl-3-cepheme-4-carboxylic acid]
MIC ([1]; 24h): 30 µg/mL (≈ 79.9 µM)
MIC ([1]; 48h): 40 µg/mL (≈ 107 µM)
MIC ([1]; 72h): 40 µg/mL (≈ 107 µM)
MIC ([2]; 24h): 1 µg/mL (≈ 2.66 µM)
MIC ([2]; 48h): 3 µg/mL (≈ 7.99 µM)
MIC ([2]; 72h): 10 µg/mL (≈ 26.6 µM)
MIC ([3]; 24h): 40 µg/mL (≈ 107 µM)
MIC ([3]; 48h): 40 µg/mL (≈ 107 µM)
MIC ([3]; 72h): 60 µg/mL (≈ 160 µM)
MIC ([4]; 24h): 60 µg/mL (≈ 160 µM)
MIC ([4]; 48h): 80 µg/mL (≈ 213 µM)
MIC ([4]; 72h): > 100 µg/mL
MIC ([5]; 24h): 60 µg/mL (≈ 160 µM)
MIC ([5]; 48h): > 100 µg/mL
MIC ([6]; 24h): 60 µg/mL (≈ 160 µM)
MIC ([6]; 48h): 60 µg/mL (≈ 160 µM)
MIC ([6]; 72h): > 100 µg/mL
MIC ([7]; 24h): 2 µg/mL (≈ 5.33 µM)
MIC ([7]; 48h): 2 µg/mL (≈ 5.33 µM)
MIC ([7]; 72h): 2 µg/mL (≈ 5.33 µM)
MIC ([8]; 24h): 2 µg/mL (≈ 5.33 µM)
MIC ([8]; 48h): 5 µg/mL (≈ 13.3 µM)
MIC ([8]; 72h): 10 µg/mL (≈ 26.6 µM)
Mice living on 8th day [9, 10]: 7/10
Mice living on 8th day (%) [9, 10]: 70%
Mortality at 10h [9, 11]: 1
Mortality at 22h [9, 11]: 1
Mortality at 70h [9, 11]: 1
Mice living on 8th day [9, 12]: 9/10
Mice living on 8th day (%) [9, 12]: 90%
Mortality at 70h ([9]; 1.0 mg repeated two times, oral, 10 mice): 1
Mice living on 8th day [9, 13]: 10/10
Mice living on 8th day (%) [9, 13]: 100%
Mice living on 8th day [9, 14]: 10/10
Mice living on 8th day (%) [9, 14]: 100%
antibacterial activity ([9]; administered orally, 1 hour and 5 hours after infection): good antibacterial activity
